Broadly, the Ki is the equilibrium dissociation constant of an inhibitor or competing ligand from its target. The low end stands for a stronger hold on the target, the high end for a looser hold on the target.

The assay has as its target dihydroorotate dehydrogenase (DHODH) (Escherichia coli, UniProt P0A7E1). The experiment in a line: continuous DCIP-reduction assay at […] nm, Lineweaver-Burk analysis. The format is biochemical.

Chain of dihydroorotate dehydrogenase (DHODH) (P0A7E1 whole entry): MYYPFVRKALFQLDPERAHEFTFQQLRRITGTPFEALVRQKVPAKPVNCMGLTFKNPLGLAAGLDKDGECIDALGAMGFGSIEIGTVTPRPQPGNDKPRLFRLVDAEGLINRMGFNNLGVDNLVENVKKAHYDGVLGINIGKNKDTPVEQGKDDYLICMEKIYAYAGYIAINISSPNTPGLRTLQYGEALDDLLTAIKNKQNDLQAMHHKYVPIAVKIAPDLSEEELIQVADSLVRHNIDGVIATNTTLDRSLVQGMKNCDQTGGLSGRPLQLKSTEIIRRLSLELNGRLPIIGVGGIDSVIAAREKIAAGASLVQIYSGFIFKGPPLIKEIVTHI

`CCCCCCC=CCc1nc2ccccc2c(O)c1C` [HMNQ, 4-hydroxy-3-methyl-2-(2-nonenyl)-quinoline] showed an inhibition constant Ki of 51 nM.

Compound `CCCCCCCc1cc(=O)c2ccccc2n1O` [HQNO, 2-heptyl-4(1H)-quinolone N-oxide] displayed a Ki of 239 nM.

The values above are taken from PMC5741510 (Cell chemical biology, 2017).
